Values quoted from earlier work in the CATMoS acute toxicity set (Mansouri et al. 2021).
Values joined by “and” are separate entries in the source; they are usually repeats but may differ in a detail not shown here. Equal values may be shown once.

Assay: rat acute oral toxicity
Settings: in vivo
For `ClCCN(Cc1ccccc1)Cc1ccccc1`, the LD50 is given as 2400 mg/kg. In the case of `CNC(C)C#N` (centres undefined), the LD50 is given as 48 mg/kg. In the case of `CC1(C)S[C@@H]2[C@H](NC(=O)C(C(=O)Oc3ccccc3)c3ccccc3)C(=O)N2[C@H]1C(=O)O` (some centres undefined), the LD50 is given as 10000 mg/kg. For `COCc1cc(C(C)(C)C)c(O)c(C(C)(C)C)c1`, the LD50 is listed as 10600 mg/kg. In the case of `C[C@]12CCC(=O)C=C1[C@@H]1C[C@@H]1[C@@H]1[C@@H]2CC[C@@]2(C)[C@H]1CC[C@@]2(O)CCC(=O)O`, the LD50 is given as 1400 mg/kg. In the case of `COC(=O)c1cccc(N=NN(C)C)c1`, the LD50 is given as 60 mg/kg. In the case of `CCCCc1c(C)nc(NCC)nc1O`, the LD50 is listed as 4000 mg/kg. In the case of `CCOP(=S)(OCC)OCCS(=O)CC` (centres undefined), the LD50 is listed as 100 mg/kg. In the case of `O=C1NS(=O)(=O)c2ccccc21`, the LD50 is listed as 14200 mg/kg. For `O=C(OC[C@H]1O[C@@H](OC(=O)c2cc(O)c(O)c(OC(=O)c3cc(O)c(O)c(O)c3)c2)[C@H](OC(=O)c2cc(O)c(O)c(OC(=O)c3cc(O)c(O)c(O)c3)c2)[C@@H](OC(=O)c2cc(O)c(O)c(OC(=O)c3cc(O)c(O)c(O)c3)c2)[C@@H]1OC(=O)c1cc(O)c(O)c(OC(=O)c2cc(O)c(O)c(O)c2)c1)c1cc(O)c(O)c(OC(=O)c2cc(O)c(O)c(O)c2)c1`, the LD50 is given as 2260 mg/kg. For `CN1CCN(CCCN2c3ccccc3Sc3ccc(Cl)cc32)CC1`, the LD50 is listed as 1800 mg/kg. In the case of `CC(N)CCN` (centres undefined), the LD50 is given as 1350 mg/kg. For `CS(=O)(=O)F`, the LD50 is listed as 2 mg/kg. For `CCOP(=S)(Oc1ccc(C#N)cc1)c1ccccc1` (centres undefined), the LD50 is listed as 28.5 mg/kg. In the case of `COc1ccc2c(c1)OC(C)(C)[C@H](c1ccccc1)[C@H]2c1ccc(OCCN2CCCC2)cc1` (racemic), the LD50 is listed as 800 mg/kg. In the case of `CC(=O)Nc1ccc(S(=O)(=O)Nc2cc(C)on2)cc1`, the LD50 is listed as 8400 mg/kg. For `CN(Sc1ccc(Cl)c(Cl)c1)C(=O)Oc1cccc2c1OC(C)(C)C2`, the LD50 is listed as 25 mg/kg. For `CN(C)N=Nc1nc[nH]c1C(N)=O`, the LD50 is listed as 2150 mg/kg. In the case of `Cc1cccc(OCCC(C)C)c1N(C)C(=O)CCl`, the LD50 is listed as 3300 mg/kg. For `CN(CCc1ccccc1)N=O`, the LD50 is given as 48 mg/kg. In the case of `CC(=O)Oc1c([N+](=O)[O-])cc([N+](=O)[O-])cc1C(C)(C)C`, the LD50 is given as 62 mg/kg. In the case of `OCc1c(F)c(F)c(F)c(F)c1F`, the LD50 is listed as 900 mg/kg. For `CCOC(=O)c1ccc([N+](=O)[O-])cc1`, the LD50 is given as 2660 mg/kg. For `ClC=C(Cl)CCl`, the LD50 is listed as 616 mg/kg. In the case of `Brc1cc2c(cc1Br)Oc1cc(Br)c(Br)cc1O2`, the LD50 is given as 0.1 mg/kg. In the case of `C=CCSC(=S)SC(Cl)(Cl)Cl`, the LD50 is listed as 2180 mg/kg. For `CCCCCCCCCN(CCCCCCCCC)CCCCCCCCC`, the LD50 is listed as 5600 mg/kg. In the case of `Cc1ccc2sc(C)nc2c1`, the LD50 is given as 957 mg/kg. In the case of `O=C(CCCN1CCN(C(=O)OC2CCCCC2)CC1)c1ccc(F)cc1`, the LD50 is given as 1080 mg/kg. In the case of `COc1cc(N)c2c(c1N)C(=O)c1ccccc1C2=O`, the LD50 is listed as 891 mg/kg. For `COc1ccc(N)cc1N`, the LD50 is listed as 460 mg/kg. In the case of `CCC(C)C(=O)OC1C(OC(C)=O)c2c(ccc3ccc(=O)oc23)OC1(C)C` (centres undefined), the LD50 is given as 1210 mg/kg. In the case of `ClC1=C(Cl)C2(Cl)C3CCC4C(CCC3C1(Cl)C2(Cl)Cl)C1(Cl)C(Cl)=C(Cl)C4(Cl)C1(Cl)Cl` (centres undefined), the LD50 is given as 25000 mg/kg. In the case of `COc1ccc2c(c1)N(C[C@H](C)CN(C)C)c1ccccc1S2`, the LD50 is given as 1100 mg/kg. For `Nc1ccc(N=Nc2ccc(O)cc2)cc1`, the LD50 is listed as 1950 mg/kg. For `N=C(N)Nc1ccc(C(=O)Oc2ccc3cc(C(=N)N)ccc3c2)cc1`, the LD50 is given as 3050 mg/kg. In the case of `Cc1ccc(Cl)cc1Cl`, the LD50 is given as 2400 mg/kg. For `CCCCCCCCCCCCCCCCCCN(C)C`, the LD50 is given as 200 mg/kg. For `O=C(CCN1CCN2c3ccccc3CCC2C1)Cc1ccc(F)cc1` (centres undefined), the LD50 is given as 800 mg/kg. For `CC(CCl)[N+](=O)[O-]` (centres undefined), the LD50 is given as 197 mg/kg. For `Cc1ccc2c(-c3ccccc3)nc(=O)n(C(C)C)c2c1`, the LD50 is listed as 759 mg/kg. In the case of `COc1cc(N)ccc1N`, the LD50 is given as 60 mg/kg and 70 mg/kg. In the case of `N#Cc1c(Cl)cccc1Cl`, the LD50 is given as 2710 mg/kg. For `C1CCCCC1`, the LD50 is listed as 12700 mg/kg. For `NNC(=O)CCCCCCCCC(=O)NN`, the LD50 is listed as 2500 mg/kg. For `NC(=O)C(O)(c1ccccc1)c1ccccc1`, the LD50 is given as 1550 mg/kg. In the case of `CCCCC(=O)CC`, the LD50 is listed as 2760 mg/kg. For `COP(=S)(OC)Oc1cc(C)c(Cl)cc1C(C)C`, the LD50 is given as 500 mg/kg. For `O=S1(=O)CCC(Br)C1` (centres undefined), the LD50 is given as 215 mg/kg. In the case of `COCCOC(=O)C1=C(C)NC(C)=C(C(=O)OC(C)C)C1c1cccc([N+](=O)[O-])c1` (centres undefined), the LD50 is given as 2740 mg/kg. In the case of `O=C(O)c1cccnc1Nc1cccc(C(F)(F)F)c1`, the LD50 is given as 250 mg/kg. For `O=C(c1ccc(Cl)cc1)n1cc(Cc2nn[nH]n2)c2ccccc21`, the LD50 is listed as 1200 mg/kg. In the case of `CNC(=O)ON=C1C(Cl)C2CC(C#N)C1C2` (centres undefined), the LD50 is given as 24 mg/kg. In the case of `CCC(C)NCC(O)c1ccc(N)cc1` (centres undefined), the LD50 is listed as 650 mg/kg. For `Cc1nnc(NS(=O)(=O)c2ccc(N)cc2)s1`, the LD50 is given as 3500 mg/kg. In the case of `CCOC(=O)[C@H](CCc1ccccc1)N[C@@H](C)C(=O)N1CCC[C@H]1C(=O)O`, the LD50 is listed as 2970 mg/kg. In the case of `COc1ccc2c(c1)OC(C)(C)C(c1ccccc1)=C2c1ccc(OCCO)cc1`, the LD50 is listed as 500 mg/kg. In the case of `S=C1NCCNC(=S)S1`, the LD50 is listed as 240 mg/kg. For `NC(CCN1CCCCCC1)=NO`, the LD50 is given as 500 mg/kg. In the case of `CNC(=O)O/N=C/C(C)(C)S(C)=O` (centres undefined), the LD50 is listed as 0.49 mg/kg. For `CCCCOC(C)COC(=O)COc1cc(Cl)c(Cl)cc1Cl` (centres undefined), the LD50 is listed as 500 mg/kg. For `CCCCN1CCCN=C1C(OCC)c1ccccc1` (centres undefined), the LD50 is given as 220 mg/kg. For `CCC(=O)Nc1ncc(Cl)s1`, the LD50 is listed as 316 mg/kg. In the case of `COc1ccc(SP(=S)(CCl)OC(C)C)cc1` (centres undefined), the LD50 is listed as 108 mg/kg. For `Nc1cc(Cl)c(NC2=NCCN2)c(Cl)c1`, the LD50 is given as 38 mg/kg. For `CN(N=O)c1ccccn1`, the LD50 is given as 60 mg/kg. In the case of `CCCCCCCCCCCCCCOCCOCCOCCOCCOCCOCCOCCO`, the LD50 is listed as 2600 mg/kg. In the case of `CC(C)NCC(O)COc1cccc2[nH]ccc12` (centres undefined), the LD50 is given as 263 mg/kg. For `Cc1cccc(C)c1NC1=NCCCS1`, the LD50 is listed as 130 mg/kg. For `C=CCC(CCN(CC)CC)(C(=O)OCC)c1ccccc1` (centres undefined), the LD50 is given as 200 mg/kg. For `Cc1oc(=O)oc1COC(=O)[C@@H]1N2C(=O)[C@@H](NC(=O)[C@H](N)c3ccccc3)[C@H]2SC1(C)C`, the LD50 is given as 10000 mg/kg. In the case of `CCCCn1c2ccccc2c2cc(N)ccc21`, the LD50 is given as 946 mg/kg. For `CCOC(=O)C1=C(C)NC(C)=C(C(=O)OCCN2CCCCC2)C1c1cccc([N+](=O)[O-])c1` (centres undefined), the LD50 is listed as 363 mg/kg. For `C=CCC(C(=O)NC(N)=O)C(C)C` (centres undefined), the LD50 is given as 1050 mg/kg. For `C/N=C/Nc1ccc(Cl)cc1C`, the LD50 is given as 264 mg/kg. For `CC(C)CC(C)CC(=O)O` (centres undefined), the LD50 is given as 900 mg/kg. For `O=c1[nH]c(=O)n([C@H]2C[C@H](O)[C@@H](CO)O2)cc1Br`, the LD50 is given as 8400 mg/kg. In the case of `N#CC1(O)CCCCC1`, the LD50 is listed as 10 mg/kg. In the case of `COC(=O)c1c(C(F)F)nc(C(F)(F)F)c(C(=O)OC)c1CC(C)C`, the LD50 is given as 1420 mg/kg. For `CCOP(=S)(OCC)Oc1cc(Cl)c(I)cc1Cl`, the LD50 is listed as 140 mg/kg. For `CC(C)c1cccc(C(C)C)c1N=C=O`, the LD50 is listed as 1410 mg/kg. For `C=CCOCC(CC)(CO)COCC=C`, the LD50 is given as 6500 mg/kg. In the case of `Cc1ccccc1N=C=O`, the LD50 is listed as 1600 mg/kg. For `FC(F)(F)c1nc2cc(Br)c(Cl)cc2[nH]1`, the LD50 is listed as 9.04 mg/kg. For `CN(C)CCN(C)n1cc(-c2ccccc2)c2ccccc21`, the LD50 is given as 1160 mg/kg. For `O=C(O)c1cc(-n2c(-c3ccccc3)cc3c2CCc2ccccc2-3)ccc1O`, the LD50 is listed as 450 mg/kg. For `CCOC(=O)c1ncn2c1CN(C)C(=O)c1cc(F)ccc1-2`, the LD50 is listed as 4200 mg/kg. In the case of `CCCC(C)OC(N)=O` (centres undefined), the LD50 is given as 421 mg/kg. In the case of `CCNC(=S)OC(C)C`, the LD50 is given as 568 mg/kg. In the case of `CC(C)=C1C(=O)N(c2ccccc2)N(c2ccccc2)C1=O`, the LD50 is listed as 1280 mg/kg. In the case of `CCCCOP(=O)(OCCO)OCCCC`, the LD50 is listed as 915 mg/kg. For `CC(C)(C)NC(=O)[C@H]1CC[C@H]2[C@@H]3CC[C@H]4NC(=O)C=C[C@]4(C)[C@H]3CC[C@]12C`, the LD50 is listed as 418 mg/kg. In the case of `Cc1ccc(C(C)OC(=O)C2(C)CCC(C(=O)O)C2(C)C)cc1` (centres undefined), the LD50 is given as 2810 mg/kg. For `CC(C)NCC(O)COc1ccccc1C1CCCCC1` (centres undefined), the LD50 is listed as 1850 mg/kg. For `Cc1n[nH]c(=O)c2noc(C)c12`, the LD50 is listed as 1000 mg/kg. In the case of `CSC`, the LD50 is listed as 3300 mg/kg. In the case of `COc1cc(C#N)ccc1OP(=S)(OC)OC`, the LD50 is listed as 2710 mg/kg. In the case of `CNC(=O)Oc1ccccc1C1SCCS1`, the LD50 is given as 90 mg/kg. For `CC1(C)C2CCC(C=O)C1C2` (centres undefined), the LD50 is listed as 2300 mg/kg.
